The series concerns TRPV1-overexpressed HEK293 cells. Conditions: FIGS. 1F-1K, tested concentrations 0-5 μM.

Molecules are shown by their SMILES.

For `CC(C)(C)c1cc2c(O)c(c1)Cc1cc(C(C)(C)C)cc(c1O)Cc1cc(C(C)(C)C)cc(c1O)Cc1cc(C(C)(C)C)cc(c1O)C2` [4-tert-Butylcalix[4]arene], the “toxicity on the cells of the calixarene derivative in the formulation” value was “did not cause any toxicity”.

The record behind these values is patent publication US11918659B2, “Materials and methods for inducing therapeutic hypothermia in a mammalian subject” (priority 2018, dated 2024).
